How the values were obtained:
[1] = tested on: human cancer cell lines and normal cells; assay: Cell viability, panel of cancer cell lines and normal cells; assay type: cell-based; details: for IC50: Homo sapiens, all cancer cell lines examined; for concentrations with cytotoxic activity: cancer cell lines in vitro
From the text: Human colon cancer HT29 cells, colon-derived normal fibroblast CCD-18Co cells, lung cancer A549 cells, normal human bronchial epithelial (immortalized with adenovirus 12-SV40 virus hybrid Ad12SV40) BEAS-2B cells, breast cancer MDA-MB-231 cells, normal breast epithelial MCF10A cells, human osteosarcoma U-2OS cells were purchased from ATCC (Manassas, VA, United States). Primary osteoblasts were generated as reported previously ([Buondonno et al., 2016]). HMM and HMC were primary cells stabilized in culture as described ([Aldieri et al., 2004]). The use of primary cells was approved by Ethical Committee of the San Luigi Gonzaga Hospital, Orbassano, (protocol #126/2016). All subjects gave written informed consent in accordance with the Declaration of Helsinki. Cells were maintained in medium supplemented with 10% v/v fetal bovine serum, 1% v/v penicillin-streptomycin, 1% v/v L-glutamine. Morphological analysis was performed with a bright field microscope (Leica Microsystems, Wetzlar, Germany). At least 5 fields/experimental condition were examined.
The extracellular release of LDH, considered an index of cell damage and necrosis, was measured spectrophotometrically, as reported ([Riganti et al., 2013b]). The extracellular medium was centrifuged at 12,000 × g for 15 min to pellet cellular debris, the cells were washed with fresh medium, detached with 0.01% trypsin/EDTA, re-suspended in 0.2 ml of 82.3 mM triethanolamine phosphate-HCl (pH 7.6), and sonicated on ice with two 10-sec bursts. LDH activity was measured in the extracellular medium and in the cell lysate: 50 μl of extracellular medium or 5 μl of cell lysate were incubated at 37°C with 5 mM NADH. The reaction was started by adding 20 mM pyruvic acid and was monitored for 6 min, measuring absorbance at 340 nm using a Synergy HT Multi-Detection Microplate Reader (Bio-Tek Instruments, Winoosky, MT, United States). The reaction kinetics were linear throughout the time of measurement. Both intracellular and extracellular enzyme activities were expressed as μmol NADH oxidized/min/dish. The results were expressed as percentage of extracellular LDH versus total (intracellular plus extracellular) LDH. Cell viability was measured by the neutral red staining method, as previously reported ([Riganti et al., 2015b]). The absorbance of untreated cells was considered as 100% viability; the results were expressed as percentage of viable cells versus untreated cells. IC50 was calculated with the CompuSyn software^1.
FIGURE 4 Effects of phenolic TPP-derivatives on the viability of cancer cell lines and normal cells. Cells were incubated 72 h in fresh medium (0) or with increasing concentrations (0.1, 1, and 10 μM) of 1 and 2. Cell viability was measured spectrophotometrically in quadruplicates. […]

[2] = tested on: mitofusin 1 (MFN1) and mitofusin 2 (MFN2); assay: qRT-PCR of mitofusin mRNA in BEAS-2B cells; assay type: cell-based, Human; details: 0.1 μM, 4 h
Procedure: Supplementary Figure 4 Effects of TPP-derivatives on mitofusin 1 and mitofusin 2 expression.
A549 and BEAS-2B cells were incubated 4 h in fresh medium (ctrl) or with 0.1 µM of 1 and 2.
Expression of mitofusin 1 (MFN1) and mitofusin 2 (MFN2) mRNA was evaluated by qRT-PCR in
triplicates. Data are means ± SD (n=3).
(1 picture or pasted object on this page, not shown here)

[3] = tested on: electron transport between complexes I and III; assay: Electron transport chain in mitochondrial extracts of A549 cells; assay type: cell-based, Human; details: 0.1 μM, 4 h
Procedure: The electron transport between complexes I and III was measured in mitochondrial extracts, immediately after extract thawing, as detailed earlier ([Jean et al., 2015]). In particular, 10 μl of not-sonicated mitochondrial samples were re-suspended in 0.59 ml buffer C (5 mM KH2PO4, 5 mM MgCl2, 5% w/v BSA) and transferred into a quartz spectrophotometer cuvette. Then 0.38 ml buffer D (25% w/v saponin, 50 mM KH2PO4, 5 mM MgCl2, 5% w/v BSA, 0.12 mM cytochrome c-oxidized form, 0.2 mM NaN3) was added for 5 min at room temperature. The reaction was started with 0.15 mM NADH and was followed for 5 min, reading the absorbance at 550 nm by a Lambda 3 spectrophotometer (PerkinElmer, Waltham, MA, United States). The results were expressed as nmoles reduced cytochrome c/min/mg mitochondrial proteins. […]
[t] […] (E,F) The electron transport was measured spectrophotometrically in duplicates. ATP levels in mitochondrial extracts was measured by a chemiluminescence-based assay, in duplicates. […] (G,H) ROS amount in mitochondrial extracts and mitochondrial damage were measured fluorimetrically, in duplicates. […] There were no statistically significant differences between untreated (ctrl) and compound 1/compound 2-treated BEAS-2B cells for all the parameters analyzed in this figure.

caspase 9 = assay: Caspase 9 activity in BEAS-2B cell lysates; assay type: cell-based, Human; details: 0.1 μM, 24 h
Procedure: The activity of caspase 9 and 3 was measured by incubating 20 μg cell lysates with the respective fluorogenic substrates Ac-LEHD-AMC (LEHD-AMC) or DEVD-AMC (DEVD-AMC), as reported ([Pinzón-Daza et al., 2012]). Results were expressed as nmoles AMC/mg protein.
FIGURE 7 Effects of phenol TPP-derivatives on mitochondria-dependent apoptosis. A549 and BEAS-2B cells were incubated 24 h in fresh medium (ctrl) or in medium containing 0.1 μM of 1 or 2. (A,B) The activity of caspase 9 and 3 was measured fluorimetrically, in duplicates. Data are means ± SD (n = 3). For both panels: ^∗p < 0.001 vs. A549 ctrl cells; °p < 0.001 for BEAS-2B cells vs. the corresponding condition in A549 cells. (C,D) Cell cycle distribution, measured in duplicates. Data are means ± SD (n = 3). For both panels: ^∗p < 0.001 vs. A549 ctrl cells: °p < 0.001 for BEAS-2B cells vs. the corresponding condition in A549 cells. (E) Bright field microscope analysis of cells. Magnification: 60 × objective (0.52 numerical aperture); 10 × ocular lens. Bar: 20 μM. The micrographs are representative of three experiments with similar results.

Structure (SMILES)	IC50 [1] [µM]	concentrations with cytotoxic activity [1] [nM]	expression of mitofusin 1 (MFN1) and mitofusin 2 (MFN2) [2]	rate of electron transport [3]	activity of caspase 9 (caspase 9)
CC(=O)Oc1ccc(C[P+](c2ccccc2)(c2ccccc2)c2ccccc2)cc1.[Br-] [Compound 1]	< 10	100 to 1000	no changes	significant decrease	remained similar to untreated cells
O=C(Oc1ccc(C[P+](c2ccccc2)(c2ccccc2)c2ccccc2)cc1C(F)(F)F)c1ccccc1.[Br-] [Compound 2]	< 10	100 to 1000	no changes	significant decrease	remained similar to untreated cells

From article PMC5994430, “Mitochondrial Delivery of Phenol Substructure Triggers Mitochondrial Depolarization and Apoptosis of Cancer Cells” (Frontiers in Pharmacology, 2018)
